According to ChEMBL document CHEMBL1146473, “Tyromycic acids B-E, new lanostane triterpenoids from the mushroom Tyromyces fissilis” (J Nat Prod, 2004):
Active and inactive are the calls of the source. No cut-off for these calls is given here.

How the values were obtained:
[1] = system: Radical scavenging activity; assay: Antioxidant activity assessed as DPPH radical scavenging activity; assay type: functional
[2] = system: Human immunodeficiency virus 1; assay: Antiviral activity against HIV1 infected in human MT4 cells; assay type: functional, organism-based

For `CC(=O)O[C@@H]1C2=C(CC[C@H]3C(C)(C)C(=O)CC[C@]23C)[C@]2(C)CC[C@H]([C@H](C)CC/C=C(\C)C(=O)O)[C@@]2(C)[C@@H]1OC(C)=O`, the Activity [1] was “inactive” and the Activity [2] was “inactive”.
`CC(=O)O[C@@H]1C=C2C(=CC[C@H]3C(C)(C)[C@@H](O)CC[C@]23C)[C@]2(C)CC[C@H]([C@H](C)CC/C=C(\C)C(=O)O)[C@@]12C` was tested, and the Activity [1] was “inactive” and the Activity [2] was “inactive”.
With `C/C(=C\CC[C@@H](C)[C@H]1CC[C@@]2(C)C3=CC[C@H]4C(C)(C)C(=O)CC[C@]4(C)C3=C[C@@H](O)[C@]12C)C(=O)O` the Activity [1] was “inactive” and the Activity [2] was “inactive”.
